Assay results published in ChEMBL document CHEMBL1146799, “Molecular modeling on DNA cleavage activity of seryl-histidine and related dipeptide” (Bioorg Med Chem Lett, 2004).
Residues, ends and D or L forms follow the SMILES beside them.

What was measured:
Nucleic Acid [1] = assay: DNA cleaving activity was determined; +++++ indicates 100% of Ser-His cleavage activity; format: functional
Nucleic Acid [2] = assay: DNA cleaving activity was determined; +/- indicates marginally detectable cleavage activity; format: functional

N[C@@H](CO)C(=O)N[C@@H](Cc1c[nH]cn1)C(=O)O (H-Ser-His-OH) was tested, and the Activity (Nucleic Acid [1]) was “++++”.
For C[C@@H](O)[C@H](N)C(=O)N[C@@H](Cc1c[nH]cn1)C(=O)O (H-Thr-His-OH), the Activity (Nucleic Acid [2]) was “+/-”.
